# US7939292B2, “Modified heparinase III and methods of sequencing therewith” (Massachusetts Institute of Technology, priority 2000, dated 2011)
# What was measured:
# Type in all cases: biochemical, Flavobacterium heparinum
# [1] = biological target: T1, heparinase III (Pedobacter heparinus, UniProt Q59289); assay: DEPC inactivation of heparinase III (UV 232 nm activity assay)
# T1 construct: compared to the native heparinase III isolated directly from Flavobacterium heparinum; purchased IBEX Technologies (Montreal, Canada), received as a gift rather than bought; host or cells: Flavobacterium heparinum (natural producer)
# T1 sequence (Q59289 25-659): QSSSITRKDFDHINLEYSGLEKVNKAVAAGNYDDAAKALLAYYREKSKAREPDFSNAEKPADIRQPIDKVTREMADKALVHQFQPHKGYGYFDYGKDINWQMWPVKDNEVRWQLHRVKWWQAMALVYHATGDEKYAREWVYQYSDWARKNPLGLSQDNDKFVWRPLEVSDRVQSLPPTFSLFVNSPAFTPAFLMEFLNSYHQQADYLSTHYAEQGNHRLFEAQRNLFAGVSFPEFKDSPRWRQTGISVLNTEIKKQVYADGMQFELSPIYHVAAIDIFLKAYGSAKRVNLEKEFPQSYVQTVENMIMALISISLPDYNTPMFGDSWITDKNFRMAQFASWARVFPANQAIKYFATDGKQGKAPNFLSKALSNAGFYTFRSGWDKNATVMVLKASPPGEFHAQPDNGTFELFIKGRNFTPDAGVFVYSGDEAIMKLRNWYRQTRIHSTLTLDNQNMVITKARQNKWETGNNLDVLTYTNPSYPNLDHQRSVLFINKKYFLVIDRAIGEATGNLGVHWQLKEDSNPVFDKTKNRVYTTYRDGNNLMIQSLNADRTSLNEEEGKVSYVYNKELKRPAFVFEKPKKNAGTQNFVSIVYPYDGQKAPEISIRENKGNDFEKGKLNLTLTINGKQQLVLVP
# Procedure: The activity of heparinase III was measured using a UV 232 nm assay similar to those reported for heparinase I and heparinase II (Godavarti, R., Cooney, C. L., Langer, R., and Sasisekharan, R. (1996) Biochemistry 35, 6846-52; Shriver, Z., Hu, Y., and Sasisekharan, R. (1998) J. Biol. Chem. 273, 10160-67; and Lohse, D. and Linhardt, R. J. (1992) J. Biol. Chem. 267, 781-87). Briefly, the increase in absorbance at 232 nm as a function of time was monitored under saturating substrate conditions. All assays were performed with heparan sulfate at a concentration of 2 mg/ml in 50 mM sodium phosphate, pH 7.6. The temperature for enzymatic activity measurements was kept constant at 35° C.
# (A) DEPC Inactivation of Heparinase III. At pH values ranging from 6.0 to 8.0, heparinase III (50 μg/mL) was incubated with DEPC in 50 mM sodium phosphate buffer at 25° C. The DEPC stock solution (6.9 M) was diluted with ethanol. […] At each pH, three reactions were run using different concentrations of DEPC, ranging from 50 μM to 2.5 mM. At fixed time intervals, 25 μL aliquots were withdrawn from the reaction mixtures for the UV 232 nm activity assay.
# The kinetics of DEPC inactivation of heparinase III was determined by plotting the natural log of percent activity versus an adjusted time term (to account for the decomposition of DEPC). Briefly, this adjusted time term (t′) was calculated according to the following equation: […]
# In this equation, k′ is the first order rate constant for DEPC hydrolysis and t is the measured time after addition of DEPC to the heparinase III solution. At each pH, the order of the reaction in DEPC was determined by plotting the observed rate constants of inactivation at each pH vs. log [DEPC]. The slope of this graph is n, the order of the reaction with respect to DEPC (Lundblad, R. (1995) Techniques in Protein Modification, CRC Press, Boca Raton).
# Heparinase III was incubated with 0.31 (□), 0.54 (●), 0.97 (◯), 1.5 (▴), 1.9 (Δ) mM DEPC at pH 6.5 and at 25° C. (shown in inset of FIG. 1). […]
# [2] = biological target: T1, heparinase III; assay: Substrate protection of heparinase III against DEPC inactivation; details: 2 mg/mL heparan sulfate 30 min before 1.5 mM DEPC
# Procedure: (C) Substrate Protection of Heparinase III against DEPC Inactivation. Heparinase III (50 μg/mL) was pre-incubated with 2 mg/mL heparan sulfate in 50 mM sodium phosphate, pH 7.6 for 30 minutes prior to the addition of 1.5 mM DEPC. A control reaction with no prior incubation of substrate was also completed. The time course of inactivation for both was determined using the heparinase III activity assay.
# Substrate protection of heparinase III inactivation by DEPC was also assessed (FIG. 4). Heparinase III (50 μg/mL) was incubated with 2 mg/mL heparan sulfate for 30 min. 1.5 mM DEPC was added to the reaction and time course of inactivation was completed using the heparinase III activity assay (O). A control reaction without pre-incubation with heparan sulfate was also done (□).
# [3] = biological target: T1, heparinase III; assay: Reactivation of DEPC-modified enzyme with hydroxylamine; set-up: Activity (%): concentration or dose not given beside the values
# Procedure: (B) Reactivation of DEPC-Modified Enzyme with Hydroxylamine. Similar to what was completed with heparinase I and II (Godavarti, R., Cooney, C. L., Langer, R., and Sasisekharan, R. (1996) Biochemistry 35, 6846-52 and Shriver, Z., Hu, Y., and Sasisekharan, R. (1998) J. Biol. Chem. 273, 10160-67), heparinase III (50 μg/mL) was incubated with 0.97 mM DEPC, pH 6.5 until its enzymatic activity was reduced to 50% of its initial value. […] The reaction was incubated at room temperature for 6 hours. Aliquots were withdrawn every hour for the activity assay. The control mixture contained no DEPC but the same concentration of hydroxylamine to account for the loss of nonspecific activity. The ratio of the activity of the reaction mixture over the activity of the control was calculated to determine recovery of enzymatic activity.
# [4] = biological target: T1, heparinase III; assay: Quantification of histidines modified by DEPC (240 nm) with activity check
# Procedure: (D) Quantification of the Number of Histidines Modified by DEPC. The extent of modification of an enzyme by DEPC can be determined by monitoring the formation of the N-carbethoxylhistidyl adduct at 240 nm. At time zero, 1.5 mM DEPC was added to the cuvette containing heparinase III in sodium phosphate buffer, pH 7.0. The change in absorbance at 240 nm was monitored every minute for 10 min. The number of modified residues was determined using a molar extinction coefficient of 3,200 M^−1cm^−1 (Lundblad, R. (1995) Techniques in Protein Modification, CRC Press, Boca Raton).
# At time zero, 1.5 mM DEPC was added to a cuvette containing heparinase III (540 μg/mL) in sodium phosphate buffer, pH 7.0. The change in absorbance at 240 nm was monitored at time intervals for 10 min. The number of modified histidines was calculated using a ε=3200 M^−1cm^−1. At the beginning and end of the experiment, aliquots of heparinase III were withdrawn and tested for activity. Less than 5% of initial activity remained after 10 minutes incubation with DEPC.
smiles,measurement,setting,value
"CCOC(=O)OC(=O)OCC [DEPC, diethylpyrocarbonate]",inhibition of heparinase III,[1],inhibit in a dose-dependent fashion
same,kinact/KI,"[1]; 0.31-1.9 mM DEPC, pH 6.5, 25° C., read-out: second-order rate constant of inactivation (converted)",3.33 M⁻¹ s⁻¹
same,order of the reaction in DEPC (slope of kinact vs. log [DEPC]),[1]; pH 6.5,1
same,inactivation kinetics after preincubation with heparan sulfate,[2],lower inactivation kinetics
same,activity at 970 µM,"[3]; Time 0 min after hydroxylamine, 0.97 mM DEPC, pH 6.5",51%
same,Activity (%),[3]; Time 30 min after hydroxylamine,60%
same,Activity (%),[3]; Time 60 min after hydroxylamine,66%
same,Activity (%),[3]; Time 90 min after hydroxylamine,72%
same,Activity (%),[3]; Time 180 min after hydroxylamine,76%
same,Activity (%),[3]; Time 240 min after hydroxylamine,78%
same,Activity (%),[3]; Time 360 min after hydroxylamine,80%
same,reversibility of DEPC modification,[3]; incubation with 300 mM hydroxylamine,90%
same,histidines modified per enzyme molecule,"[4]; 1.5 mM DEPC, pH 7.0, 10 minutes",1.8
same,remaining activity at 1500 µM,"[4]; after 10 minutes incubation with 1.5 mM DEPC, pH 7.0, read-out: initial activity remaining",< 5%
